Source: ChEMBL document CHEMBL1201862, “PubChem BioAssay data set” (2004)
Calls of active or inactive are those of the source.

Tests used:
[1] = loss of A549 viability via ATP – cell-based, plate reader, dry powder, set 7, cytotoxicity control, dose response (AID 743318); type: functional
[2] = Trypanosoma cruzi growth suppression in host cells – NIH3T3 host cells, beta-gal luminescence, confirmation (AID 2044); type: functional, cell-based;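 also: intracellular parasites grown in NIH/3T3 mouse fibroblasts as host cells; luminescent beta-galactosidase reporter signal from transgenic T. cruzi replicating inside host cells; inhibitors lower the luminescence signal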
[3] = NIH3T3 cell viability loss – ATP luminescence, mouse fibroblasts, counter-screen, dose response (AID 2010); type: functional, cell-based; settings: nih3t3;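 also: cells exposed to compound for about 90 hours before reading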
[4] = test system: INS1; assay: INS-1E survival protection against cytokine death – cell-based, luminescence, retest, dose response (AID 449756); type: functional; settings: Rattus norvegicus;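 also: cell death triggered by IL-1 beta plus TNF-alpha plus IFN-gamma mixture; protective hits raise ATP signal compared with cytokine alone wells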
[5] = test system: Vero; assay: cells; type: functional; settings: Chlorocebus sabaeus
[6] = cAMP pathway inhibition in counterscreen cell line – TR-FRET cAMP detection, counter-screen for MC4R biased antagonist project, dose response (AID 602305); type: functional, cell-based;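 also: U2OS cells stimulated with forskolin near its EC80 as the cAMP inducer; potency is for inhibition of forskolin-stimulated cAMP signaling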
[7] = inhibitors acting on PAX2 in cells – cell-based, plate reader, dry powder samples, selectivity assay for PAX8 inhibitor project, dose response (AID 743048); type: functional;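 also: HEK293 cells carrying a WT1 promoter luciferase reporter driven by expressed Pax2; potency is for inhibition of Pax2 driven reporter signal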
[8] = COV362 cell viability loss – plate reader, dry powder, SA12, cytotoxicity control for PAX8 inhibitor project, dose response (AID 743144); type: functional, cell-based
[9] = A2780 cell killing – plate reader, dry powder samples, cytotoxicity control, dose response (AID 743046); type: functional, cell-based
[10] = OVCAR-3 cell viability loss – plate reader, dry powder samples, PAX8 inhibitor project, dose response (AID 743044); type: functional, cell-based
[11] = PAX5 cellular inhibition readout – cell-based, plate reader, dry powder samples, selectivity assay for PAX8 inhibitor project, dose response (AID 743047); type: functional;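 also: HEK293 cells carrying a Pax5 driven CD19 promoter luciferase reporter; potency of inhibitors that lower reporter luminescence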
[12] = IGROV1 cell killing – plate reader, dry powder samples, PAX8 inhibitor project, dose response (AID 743043); type: functional, cell-based; settings: IGROV-1
[13] = OVCAR4 cell viability loss – plate reader, dry powder, SA11, cytotoxicity control for PAX8 inhibitor project, dose response (AID 743150); type: functional, cell-based; settings: OVCAR-4
[14] = COV434 cell viability loss – plate reader, dry powder, SA7, cytotoxicity control for PAX8 inhibitor project, dose response (AID 743145); type: functional, cell-based
[15] = OV-90 cell viability loss – plate reader, dry powder, SA8, PAX8 inhibitor project, dose response (AID 743149); type: functional, cell-based
[16] = PAX8-dependent cell viability loss – plate reader, dry powder, dose response (AID 743049); type: functional, cell-based
[17] = rise of 2N DNA cells, HeLa – IC50, dose response (AID 1117349); type: functional, cell-based
[18] = CellTiter-Glo luminescence survival assay, SW480 colon tumor line, concentration-response curve, half-maximal inhibitory concentration (AID 1117338); type: functional
[19] = IC50 of insulin release inhibition, rat insulinoma INS-1E line, 5 mM glucose, cell-based (AID 1117331); type: functional
[20] = RKO cell viability reduction, dose response, CellTiter-Glo luminescence (AID 1117322); type: functional
[21] = cytotoxicity toward HCT116 cells – cell-based, CellTiter-Glo luminescence, IC50, dose response (AID 1117332); type: functional; settings: HCT-116
[22] = SNU-C1 cell viability reduction, dose response, CellTiter-Glo luminescence (AID 1117323); type: functional, cell-based
[23] = glucagon-like peptide-1 release potency in STC-1, concentration-response, half-maximal inhibitory concentration in the STC-1 line (AID 1117345); type: functional, cell-based
[24] = cytotoxicity toward Colo320 cells – cell-based, CellTiter-Glo luminescence, IC50, dose response (AID 1117334); type: functional; settings: COLO 320
[25] = rise of 4N DNA cells, HeLa – IC50, dose response (AID 1117351); type: functional, cell-based
[26] = cytotoxicity toward HT-29 cells – cell-based, CellTiter-Glo luminescence, IC50, dose response (AID 1117330); type: functional
[27] = Reduced DLD-1 viability, concentration-response, CellTiter-Glo luminescence (AID 1117352); type: functional
[28] = Potency on glucagon-like peptide 1 release, dose-response in NCI-H716 cell line, half maximal inhibitory concentration (AID 1117344); type: functional, cell-based
[29] = molecular target: T1, Microphthalmia-associated transcription factor (Homo sapiens, UniProt O75030); assay: reducers of TRPM1 reporter luminescence, concentration series – cell-based, SK-MEL-5, cherry-picked, set 3, MITF inhibitor project, dose response (AID 493073); type: functional;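 also: SK-MEL-5 melanoma cells with luciferase driven by the MITF target TRPM1 promoter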
T1 sequence (O75030 whole entry): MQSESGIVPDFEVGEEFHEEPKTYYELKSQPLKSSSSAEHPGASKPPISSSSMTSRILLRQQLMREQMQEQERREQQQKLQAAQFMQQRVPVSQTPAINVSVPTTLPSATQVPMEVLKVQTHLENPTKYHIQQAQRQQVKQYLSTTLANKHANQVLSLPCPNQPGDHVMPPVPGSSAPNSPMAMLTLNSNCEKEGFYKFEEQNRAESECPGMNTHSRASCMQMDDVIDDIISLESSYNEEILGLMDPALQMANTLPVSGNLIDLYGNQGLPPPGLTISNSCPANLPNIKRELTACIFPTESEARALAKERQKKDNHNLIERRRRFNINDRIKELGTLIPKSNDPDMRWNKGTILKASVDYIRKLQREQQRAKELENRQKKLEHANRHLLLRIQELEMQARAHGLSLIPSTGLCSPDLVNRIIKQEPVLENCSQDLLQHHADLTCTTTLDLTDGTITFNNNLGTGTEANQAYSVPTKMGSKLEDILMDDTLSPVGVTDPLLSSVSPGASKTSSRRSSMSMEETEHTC

[30] = molecular target: T2, Apoptotic protease-activating factor 1 (Homo sapiens, UniProt O14727); type: functional
T2 sequence (O14727 whole entry): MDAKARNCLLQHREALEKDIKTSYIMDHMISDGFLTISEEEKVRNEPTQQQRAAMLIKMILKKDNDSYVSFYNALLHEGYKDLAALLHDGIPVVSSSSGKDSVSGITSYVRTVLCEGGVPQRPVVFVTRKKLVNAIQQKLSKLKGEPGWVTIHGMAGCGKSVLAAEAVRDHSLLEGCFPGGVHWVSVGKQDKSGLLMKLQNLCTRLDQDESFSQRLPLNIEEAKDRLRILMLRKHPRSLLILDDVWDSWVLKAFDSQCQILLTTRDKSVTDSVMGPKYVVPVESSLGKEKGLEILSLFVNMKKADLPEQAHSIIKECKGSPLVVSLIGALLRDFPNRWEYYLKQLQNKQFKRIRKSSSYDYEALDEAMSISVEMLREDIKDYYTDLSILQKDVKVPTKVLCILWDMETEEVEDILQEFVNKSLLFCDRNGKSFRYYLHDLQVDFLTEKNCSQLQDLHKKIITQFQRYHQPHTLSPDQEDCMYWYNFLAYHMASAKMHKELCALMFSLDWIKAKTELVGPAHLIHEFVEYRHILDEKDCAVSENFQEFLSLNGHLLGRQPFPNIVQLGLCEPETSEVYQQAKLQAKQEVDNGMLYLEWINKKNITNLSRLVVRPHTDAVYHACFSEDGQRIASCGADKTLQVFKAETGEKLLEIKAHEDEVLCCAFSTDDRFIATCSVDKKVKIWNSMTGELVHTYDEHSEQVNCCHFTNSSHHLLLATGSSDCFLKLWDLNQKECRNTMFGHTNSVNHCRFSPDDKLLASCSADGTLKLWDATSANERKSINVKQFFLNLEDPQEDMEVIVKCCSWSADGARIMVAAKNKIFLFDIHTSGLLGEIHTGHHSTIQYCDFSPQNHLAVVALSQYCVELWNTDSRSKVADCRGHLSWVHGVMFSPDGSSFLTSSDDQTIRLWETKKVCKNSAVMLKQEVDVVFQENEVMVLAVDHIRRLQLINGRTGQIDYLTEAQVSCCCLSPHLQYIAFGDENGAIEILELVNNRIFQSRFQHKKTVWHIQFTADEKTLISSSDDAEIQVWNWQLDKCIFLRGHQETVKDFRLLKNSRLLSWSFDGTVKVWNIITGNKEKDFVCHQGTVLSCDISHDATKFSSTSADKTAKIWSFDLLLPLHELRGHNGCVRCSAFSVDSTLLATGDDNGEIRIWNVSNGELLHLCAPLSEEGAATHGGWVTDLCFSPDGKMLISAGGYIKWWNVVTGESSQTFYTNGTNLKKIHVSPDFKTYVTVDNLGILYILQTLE

[31] = inhibitors of TRPM1-promoter reporter in SK-MEL-5 – cell-based, luciferase, dry powder, set 9, MITF inhibitor project, dose response (AID 651588); type: functional
[32] = cytotoxicity in MITF-independent A375 cells – cell-based, CellTiter-Glo luminescence, dry powder, set 4, counter-screen for MITF inhibitor project, dose response (AID 624364); type: functional; settings: A-375;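 also: A375 melanoma cells are MITF independent so this is a counter screen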
[33] = viability loss in MITF-independent A375 cells – cell-based, CellTiter-Glo luminescence, dry powder, set 7, counter-screen for MITF inhibitor project, dose response (AID 624490); type: functional; settings: A-375
[34] = MITF Orthogonal Assay: MALME3 CTG Assay Measured in Cell-Based System Using Plate Reader - 2084-04_Inhibitor_Dose_DryPowder_Activity_Set6.; type: functional; settings: MALME-3
[35] = growth inhibition of SK-MEL-5 melanoma cells – cell-based, CellTiter-Glo luminescence, dry powder, set 8, orthogonal assay for MITF inhibitor project, dose response (AID 651586); type: functional
[36] = growth inhibition of MALME3 cells – cell-based, CellTiter-Glo luminescence, dry powder, set 5, orthogonal assay for MITF inhibitor project, dose response (AID 651584); type: functional; settings: MALME-3
[37] = cytotoxicity in melanoma parental cells – cell-based, CellTiter-Glo, dry powder, set 6, MITF inhibitor project, dose response (AID 624429); type: functional; settings: SK-MEL-5
[38] = MITF Orthogonal Assay: SK-MEL-5 CTG Assay Measured in Cell-Based System Using Plate Reader - 2084-02_Inhibitor_Dose_DryPowder_Activity_Set5.; type: functional
[39] = viability loss in MITF-independent A375 cells – cell-based, CellTiter-Glo luminescence, dry powder, set 6, counter-screen for MITF inhibitor project, dose response (AID 624488); type: functional; settings: A-375
[40] = cytotoxicity in MITF-independent A375 cells – cell-based, CellTiter-Glo luminescence, dry powder, set 9, counter-screen for MITF modulator project, dose response (AID 651591); type: functional; settings: A-375
[41] = MITF Measured in Cell-Based System Using Plate Reader - 2084-01_Inhibitor_Dose_DryPowder_Activity_Set6.; type: functional
[42] = viability loss in MITF-independent A375 cells – cell-based, CellTiter-Glo luminescence, dry powder, set 2, counter-screen for MITF inhibitor project, dose response (AID 624489); type: functional; settings: A-375;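 also: actives are compounds lowering A375 viability meaning general cytotoxicity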
[43] = MITF Measured in Cell-Based System Using Plate Reader - 2084-01_Inhibitor_Dose_DryPowder_Activity_Set7.; type: functional
[44] = molecular target: Endoplasmic reticulum aminopeptidase 2 (Homo sapiens, UniProt Q6P179); assay: inhibition of ERAP2 Arg-AMC cleavage – biochemical, plate reader, dry powder, set 2, selectivity assay for selective ERAP1 modulator project, dose response (AID 1117289); type: functional
Endoplasmic reticulum aminopeptidase 2, sequence (Q6P179 whole entry): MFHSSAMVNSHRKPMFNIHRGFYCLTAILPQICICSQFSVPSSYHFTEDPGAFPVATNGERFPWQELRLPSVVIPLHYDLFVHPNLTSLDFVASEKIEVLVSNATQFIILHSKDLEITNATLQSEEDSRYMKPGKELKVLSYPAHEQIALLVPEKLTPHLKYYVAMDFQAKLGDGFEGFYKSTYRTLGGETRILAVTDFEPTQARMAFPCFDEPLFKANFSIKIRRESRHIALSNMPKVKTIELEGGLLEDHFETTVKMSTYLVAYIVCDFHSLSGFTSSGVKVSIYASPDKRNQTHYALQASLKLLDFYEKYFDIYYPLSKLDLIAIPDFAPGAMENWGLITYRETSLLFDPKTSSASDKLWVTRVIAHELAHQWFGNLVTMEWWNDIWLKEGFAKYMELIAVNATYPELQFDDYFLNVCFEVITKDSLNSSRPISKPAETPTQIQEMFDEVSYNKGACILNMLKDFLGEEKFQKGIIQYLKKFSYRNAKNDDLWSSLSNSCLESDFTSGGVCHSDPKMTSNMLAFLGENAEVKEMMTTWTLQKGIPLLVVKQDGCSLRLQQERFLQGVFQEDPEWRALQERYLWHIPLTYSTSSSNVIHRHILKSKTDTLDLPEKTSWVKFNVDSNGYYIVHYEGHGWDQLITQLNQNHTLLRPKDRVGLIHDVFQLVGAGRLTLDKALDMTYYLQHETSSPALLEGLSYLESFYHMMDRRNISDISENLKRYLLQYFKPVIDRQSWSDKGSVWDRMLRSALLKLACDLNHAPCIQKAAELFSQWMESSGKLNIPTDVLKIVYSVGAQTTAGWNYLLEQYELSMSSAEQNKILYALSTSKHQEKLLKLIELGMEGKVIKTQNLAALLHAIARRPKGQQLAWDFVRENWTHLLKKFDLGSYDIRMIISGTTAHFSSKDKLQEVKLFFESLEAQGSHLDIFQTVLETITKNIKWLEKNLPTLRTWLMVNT

[45] = molecular target: Leucyl-cystinyl aminopeptidase (Mus musculus, UniProt Q8C129); assay: mouse IRAP aminopeptidase activity inhibition – biochemical, dry powder samples, set 3, selectivity assay for ERAP1 modulator project, dose response (AID 1117288); type: functional
Leucyl-cystinyl aminopeptidase, sequence (Q8C129 whole entry): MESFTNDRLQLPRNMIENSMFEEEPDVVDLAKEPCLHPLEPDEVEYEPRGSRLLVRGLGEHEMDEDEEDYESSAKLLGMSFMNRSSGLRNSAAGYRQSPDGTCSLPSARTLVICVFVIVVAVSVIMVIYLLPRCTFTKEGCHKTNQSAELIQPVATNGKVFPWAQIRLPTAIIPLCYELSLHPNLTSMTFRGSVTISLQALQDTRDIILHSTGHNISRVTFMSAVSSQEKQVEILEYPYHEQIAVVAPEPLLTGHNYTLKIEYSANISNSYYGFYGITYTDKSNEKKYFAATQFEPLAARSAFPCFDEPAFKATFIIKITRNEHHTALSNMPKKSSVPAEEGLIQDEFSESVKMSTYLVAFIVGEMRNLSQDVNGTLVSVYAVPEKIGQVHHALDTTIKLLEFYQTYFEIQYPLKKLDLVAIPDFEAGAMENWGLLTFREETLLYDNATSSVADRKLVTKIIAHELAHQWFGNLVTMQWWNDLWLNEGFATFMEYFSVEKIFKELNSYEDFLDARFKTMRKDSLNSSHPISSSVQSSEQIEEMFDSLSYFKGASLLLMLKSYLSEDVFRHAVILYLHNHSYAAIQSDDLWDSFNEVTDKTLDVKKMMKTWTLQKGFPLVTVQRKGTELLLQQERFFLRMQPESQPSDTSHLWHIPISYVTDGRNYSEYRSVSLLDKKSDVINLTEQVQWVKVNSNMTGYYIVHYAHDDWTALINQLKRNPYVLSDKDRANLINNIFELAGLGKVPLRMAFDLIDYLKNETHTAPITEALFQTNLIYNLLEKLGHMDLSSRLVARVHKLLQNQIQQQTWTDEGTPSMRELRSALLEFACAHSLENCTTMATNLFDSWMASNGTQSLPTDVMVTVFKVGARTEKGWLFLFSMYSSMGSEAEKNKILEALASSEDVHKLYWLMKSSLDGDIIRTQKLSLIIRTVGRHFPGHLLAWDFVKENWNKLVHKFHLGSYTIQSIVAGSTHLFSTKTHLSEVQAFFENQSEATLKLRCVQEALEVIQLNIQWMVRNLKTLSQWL

Cc1ccc(C(C)C)c(OCCn2c(=S)[nH]c3cc(F)ccc32)c1
active: AC50 [1] 26.9 µM

N=C(NCCCCCCNC(=N)NC(=N)Nc1ccc(Cl)cc1)NC(=N)Nc1ccc(Cl)cc1 [CHLORHEXIDINE]
active: EC50 [2] 0.178 µM | EC50 [3] 6.74 µM | AC50 [4] 4.67 µM | CC50 [5] 8.43 µM | AC50 [7] 13.6 µM | AC50 [8] 21.6 µM | AC50 [9] 13.9 µM | AC50 [10] 13.8 µM | AC50 [11] 16.4 µM | AC50 [12] 15.6 µM | AC50 [13] 33.9 µM | AC50 [14] 12.2 µM | AC50 [15] 20 µM | AC50 [16] 12.5 µM | IC50 [20] 4.58 µM | IC50 [21] 4.39 µM | IC50 [22] 0.439 µM | IC50 [26] 3.79 µM | IC50 [27] 2.8 µM
inactive: IC50 [6] 31.8 µM | IC50 [17] > 10 µM | IC50 [18] 5.67 µM | IC50 [19] 25.2 µM | IC50 [23] 10.3 µM | IC50 [24] 5.16 µM | IC50 [25] > 10 µM | IC50 [28] 26.2 µM

CCN1CCN(C2=C(NS(=O)(=O)c3ccc(Br)cc3)C(=O)c3ccccc3C2=O)CC1
inactive: AC50 [32] > 70 µM | AC50 [33] > 70 µM | AC50 [40] > 70 µM | AC50 [42] > 70 µM
active: AC50 [29] 5.7 µM | IC50 [30] 24.3 µM | AC50 [31] 17.3 µM | AC50 [34] 20.9 µM | AC50 [35] 48.4 µM | AC50 [36] 20.9 µM | AC50 [37] 46.2 µM | AC50 [38] 34.3 µM | AC50 [39] 55.1 µM | AC50 [41] 8.92 µM | AC50 [43] 4.5 µM

COc1ccc(C(=O)O)cc1S(=O)(=O)Nc1ccc(C(F)(F)F)cc1N1CCCCC1
active: AC50 [44] 12.5 µM | AC50 [45] 77 µM
